According to patent publication US12303509B2, “Compounds for the treatment of BRAF-associated diseases and disorders” (Pfizer Inc., priority 2020, dated 2025):
Counter-ions that a name gives are not always drawn. Like-named read-outs stand apart in the source and are kept apart here.

Tests used:
[1] = target: full-length FLAG-tagged B-Raf(V600E) (Homo sapiens (Human), UniProt P15056, V600E); experiment: BRAF V600E enzyme assay (TR-FRET competitive displacement); type: binding
Outline: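 Displacement of 50 nM Tracer 1710 from 5 nM full-length N-terminally FLAG-tagged B-Raf(V600E), detected by TR-FRET with 0.5 nM Eu anti-FLAG antibody, in 25 mM HEPES pH 7.4, 10 mM MgCl2, 2% DMSO; 60 min at ~22 °C. Compounds 11-point, 3-fold from 10 μM; IC50 from 4-parameter fit at 50 POC.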

A375 cells = experiment: Cellular phospho-ERK inhibition assay in A375 cells; type: cell-based; details: Homo sapiens, A-375, A375 cells (head prints A357), 2 hours treatment, read-out: A357 cell IC50
Outline: (§1)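 A375 (DMEM) or H1755 (RPMI) cells in 10% FBS treated 2 h at 37 °C with 9-point series, 66 pM–10 μM, 0.25% DMSO. Phospho-ERK1/2 (Thr202/Tyr204) measured by In Cell Western, normalised to GAPDH and to DMSO and 10 μM binimetinib controls; IC50 by 4-parameter fit.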

H1755 cells = experiment: Cellular phospho-ERK inhibition assay in H1755 cells; type: cell-based; details: Homo sapiens, NCI-H1755, 2 hours treatment, read-out: H1755 Cell IC50
Outline: as §1

[2] = MDR1 LLC-PK1 and BCRP MDCKII permeability assay: permeability coefficient (Papp); type: in vitro ADME
Excerpt: (§2) Final organic concentration in the assay was 1%.

P-gp (MDR1) = P-gp (MDR1) (Homo sapiens (Human), UniProt P08183); experiment: MDR1 LLC-PK1 permeability assay: efflux ratio; type: in vitro ADME; details: pig
Chain of P-gp (MDR1) (P08183 whole entry, species assumed): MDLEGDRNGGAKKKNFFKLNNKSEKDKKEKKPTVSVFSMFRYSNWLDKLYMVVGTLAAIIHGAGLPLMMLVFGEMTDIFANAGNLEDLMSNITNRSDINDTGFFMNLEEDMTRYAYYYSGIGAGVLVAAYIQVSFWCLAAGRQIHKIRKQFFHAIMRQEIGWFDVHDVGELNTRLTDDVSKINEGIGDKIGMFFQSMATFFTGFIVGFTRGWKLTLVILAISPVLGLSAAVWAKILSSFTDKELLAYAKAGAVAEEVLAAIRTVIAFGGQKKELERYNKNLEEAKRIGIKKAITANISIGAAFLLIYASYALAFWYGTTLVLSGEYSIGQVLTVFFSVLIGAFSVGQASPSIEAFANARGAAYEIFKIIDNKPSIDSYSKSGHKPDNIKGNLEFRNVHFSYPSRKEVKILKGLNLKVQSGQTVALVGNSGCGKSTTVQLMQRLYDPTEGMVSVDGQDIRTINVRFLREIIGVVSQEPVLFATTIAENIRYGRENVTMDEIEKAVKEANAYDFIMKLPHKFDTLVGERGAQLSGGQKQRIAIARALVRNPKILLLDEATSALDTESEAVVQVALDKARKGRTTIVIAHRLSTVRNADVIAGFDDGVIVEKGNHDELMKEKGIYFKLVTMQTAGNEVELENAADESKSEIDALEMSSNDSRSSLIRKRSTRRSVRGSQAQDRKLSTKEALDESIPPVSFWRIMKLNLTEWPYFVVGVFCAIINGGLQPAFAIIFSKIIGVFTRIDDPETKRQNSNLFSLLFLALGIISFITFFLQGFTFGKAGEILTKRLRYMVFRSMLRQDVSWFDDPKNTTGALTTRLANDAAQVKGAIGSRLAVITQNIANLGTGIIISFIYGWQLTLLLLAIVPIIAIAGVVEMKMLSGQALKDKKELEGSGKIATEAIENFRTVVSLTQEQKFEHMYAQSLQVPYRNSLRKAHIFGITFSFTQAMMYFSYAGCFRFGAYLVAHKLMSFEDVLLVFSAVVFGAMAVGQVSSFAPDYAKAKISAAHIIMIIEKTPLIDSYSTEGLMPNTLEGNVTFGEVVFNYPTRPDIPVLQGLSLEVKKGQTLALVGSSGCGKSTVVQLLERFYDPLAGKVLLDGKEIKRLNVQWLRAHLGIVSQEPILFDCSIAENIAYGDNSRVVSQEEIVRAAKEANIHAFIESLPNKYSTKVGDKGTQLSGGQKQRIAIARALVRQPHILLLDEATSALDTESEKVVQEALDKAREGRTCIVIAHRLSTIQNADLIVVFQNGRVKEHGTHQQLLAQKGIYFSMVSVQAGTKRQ
Excerpt: as §2

BCRP = BCRP (Homo sapiens (Human), UniProt Q9UNQ0); experiment: BCRP MDCKII permeability assay: efflux ratio; type: in vitro ADME; details: dog
Chain of BCRP (Q9UNQ0 whole entry): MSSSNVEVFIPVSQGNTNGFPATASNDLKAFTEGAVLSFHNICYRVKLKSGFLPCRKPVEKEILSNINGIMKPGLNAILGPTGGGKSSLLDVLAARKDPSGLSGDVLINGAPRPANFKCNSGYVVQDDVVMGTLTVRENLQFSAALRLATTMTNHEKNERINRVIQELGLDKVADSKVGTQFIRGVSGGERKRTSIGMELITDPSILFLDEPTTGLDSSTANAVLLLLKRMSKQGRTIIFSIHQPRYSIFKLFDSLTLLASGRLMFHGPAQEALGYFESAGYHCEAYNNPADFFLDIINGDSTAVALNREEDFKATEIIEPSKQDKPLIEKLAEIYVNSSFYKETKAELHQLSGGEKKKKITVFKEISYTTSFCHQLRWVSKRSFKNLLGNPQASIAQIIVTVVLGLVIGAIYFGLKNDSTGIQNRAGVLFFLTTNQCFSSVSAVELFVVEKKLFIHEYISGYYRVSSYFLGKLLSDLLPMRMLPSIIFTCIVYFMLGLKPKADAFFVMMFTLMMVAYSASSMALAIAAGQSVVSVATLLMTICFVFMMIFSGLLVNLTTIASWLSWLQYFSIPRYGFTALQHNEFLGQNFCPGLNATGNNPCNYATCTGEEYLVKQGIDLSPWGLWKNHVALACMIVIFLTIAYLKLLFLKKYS

[3] = averaged IC50, TR-FRET tracer displacement, 60 min

Chain of full-length FLAG-tagged B-Raf(V600E) (P15056 whole entry V600E): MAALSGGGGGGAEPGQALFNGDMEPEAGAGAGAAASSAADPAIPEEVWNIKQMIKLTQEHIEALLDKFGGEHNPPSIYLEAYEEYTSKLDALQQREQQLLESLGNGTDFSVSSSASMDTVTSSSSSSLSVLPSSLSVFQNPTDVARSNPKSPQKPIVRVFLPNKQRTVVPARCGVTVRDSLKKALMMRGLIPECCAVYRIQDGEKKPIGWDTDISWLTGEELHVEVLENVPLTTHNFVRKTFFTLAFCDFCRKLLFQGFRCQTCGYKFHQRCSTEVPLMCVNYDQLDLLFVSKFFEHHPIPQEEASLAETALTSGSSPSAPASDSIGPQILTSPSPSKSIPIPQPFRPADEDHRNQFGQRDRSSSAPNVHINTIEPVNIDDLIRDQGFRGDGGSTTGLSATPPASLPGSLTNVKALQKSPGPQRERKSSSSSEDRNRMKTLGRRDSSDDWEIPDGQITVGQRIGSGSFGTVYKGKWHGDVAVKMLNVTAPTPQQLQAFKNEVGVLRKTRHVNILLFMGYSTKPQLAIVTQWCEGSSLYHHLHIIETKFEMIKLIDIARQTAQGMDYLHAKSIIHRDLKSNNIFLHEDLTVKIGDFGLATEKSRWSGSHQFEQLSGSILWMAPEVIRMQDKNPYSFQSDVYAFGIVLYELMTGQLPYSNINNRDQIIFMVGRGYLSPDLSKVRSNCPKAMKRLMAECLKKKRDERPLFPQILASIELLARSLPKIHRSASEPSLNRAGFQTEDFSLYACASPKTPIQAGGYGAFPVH

Row | IC50 [1, 3] [nM] | IC50 (A375 cells) [nM] | IC50 (H1755 cells) [nM] | Papp at 2 h, 1 µM [2] [×10⁻⁶ cm/s] | efflux ratio at 2 h, 1 µM (P-gp (MDR1)) | efflux ratio at 2 h, 1 µM (BCRP) | IC50 [1] [nM] | Structure (SMILES)
1 | 12 | 131 | 430 | 22 | 1.2 | 0.8 | – | CC[C@@H]1CCN(S(=O)(=O)Nc2ccc(F)c(Nc3ccc4ncn(C)c(=O)c4c3Cl)c2Cl)C1 [Example 106, (R)-N-(2-chloro-3-((5-chloro-3-methyl-4-oxo-3,4-dihydroquinazolin-6-yl)amino)-4-fluorophenyl)-3-ethylpyrrolidine-1-sulfonamide trifluoroacetate]
2 | 3 | 40 | 586 | 27 | 1.2 | 1.1 | – | Cc1c(Nc2c(F)c(F)cc(NS(=O)(=O)N3CCCC3)c2Cl)ccc2ncn(C)c(=O)c12 [Example 96, N-(2-chloro-3-((3,5-dimethyl-4-oxo-3,4-dihydroquinazolin-6-yl)amino)-4,5-difluorophenyl)pyrrolidine-1-sulfonamide]
3 | 2 | 4 | 42 | 27 | 1.8 | 2.4 | – | O=c1c2c(F)c(Nc3c(F)ccc(NS(=O)(=O)N4CCCC4)c3Cl)ccc2ncn1CF [Example 42, N-(2-chloro-4-fluoro-3-((5-fluoro-3-(fluoromethyl)-4-oxo-3,4-dihydroquinazolin-6-yl)amino)phenyl)pyrrolidine-1-sulfonamide trifluoroacetate]
4 | 8 | 6 | 48 | 34 | 1.5 | 1.4 | – | CN(C)S(=O)(=O)Nc1ccc(F)c(Oc2ccc3ncn(C)c(=O)c3c2Cl)c1Cl [Example 110, N-(2-chloro-3-((5-chloro-3-methyl-4-oxo-3,4-dihydroquinazolin-6-yl)oxy)-4-fluorophenyl)-(N,N-dimethyl)-sulfamide]
5 | 3 | 15 | 52 | 34 | 2.7 | 5.6 | – | Cn1cnc2ccc(Nc3c(F)ccc(NS(=O)(=O)N4C[C@@H](F)[C@@H](F)C4)c3Cl)c(Cl)c2c1=O [Example 22, cis-N-(2-chloro-3-((5-chloro-3-methyl-4-oxo-3,4-dihydroquinazolin-6-yl)amino)-4-fluorophenyl)-3,4-difluoropyrrolidine-1-sulfonamide]
6 | 32 | 19 | 80 | 27 | 1.6 | 2.1 | – | CCN(C)S(=O)(=O)Nc1ccc(F)c(Nc2ccc3ncn(C)c(=O)c3c2F)c1Cl [Example 4, N-(2-chloro-4-fluoro-3-((5-fluoro-3-methyl-4-oxo-3,4-dihydroquinazolin-6-yl)amino)phenyl)-(N-ethyl-N-methyl)-sulfamide]
7 | 7 | 68 | 327 | 33 | 1.4 | 6.4 | – | Cc1c(Nc2c(F)ccc(NS(=O)(=O)N3CC(F)(F)C3)c2Cl)ccc2ncn(C)c(=O)c12 [Example 134, N-(2-chloro-3-((3,5-dimethyl-4-oxo-3,4-dihydroquinazolin-6-yl)amino)-4-fluorophenyl)-3,3-difluoroazetidine-1-sulfonamide]
8 | 3 | 6 | 29 | 24 | 3 | 17.6 | – | Cn1cnc2ccc(Nc3c(F)ccc(NS(=O)(=O)N4CCC(F)(F)C4)c3Cl)c(F)c2c1=O [Example 23, N-(2-chloro-4-fluoro-3-((5-fluoro-3-methyl-4-oxo-3,4-dihydroquinazolin-6-yl)amino)phenyl)-3,3-difluoropyrrolidine-1-sulfonamide]
9 | 1 | 8 | 84 | 25 | 1.7 | 2.2 | – | Cn1cnc2ccc(Nc3c(F)c(F)cc(NS(=O)(=O)N4CC[C@@H](F)C4)c3Cl)c(Cl)c2c1=O [Example 33, (R)-N-(2-chloro-3-((5-chloro-3-methyl-4-oxo-3,4-dihydroquinazolin-6-yl)amino)-4,5-difluorophenyl)-3-fluoropyrrolidine-1-sulfonamide trifluoroacetate]
10 | 13 | 31 | 185 | 29 | 1.6 | 1 | – | CC[C@@H]1CCN(S(=O)(=O)Nc2ccc(F)c(Nc3ccc4ncn(C)c(=O)c4c3F)c2Cl)C1 [Example 62, (R)-N-(2-chloro-4-fluoro-3-((5-fluoro-3-methyl-4-oxo-3,4-dihydroquinazolin-6-yl)amino)phenyl)-3-ethylpyrrolidine-1-sulfonamide trifluoroacetate]
11 | – | 8 | 76 | 24 | 1.4 | 1 | 2 | Cn1cnc2ccc(Oc3c(F)ccc(NS(=O)(=O)N4CC5CC4C5)c3Cl)c(Cl)c2c1=O [Example 67, N-(2-chloro-3-((5-chloro-3-methyl-4-oxo-3,4-dihydroquinazolin-6-yl)oxy)-4-fluorophenyl)-2-azabicyclo[2.1.1]hexane-2-sulfonamide]
12 | 7 | 13 | 272 | 34 | 1.1 | 0.8 | – | CCN(C)S(=O)(=O)Nc1ccc(F)c(Oc2ccc3ncn(C)c(=O)c3c2Cl)c1Cl [Example 109, N-(2-chloro-3-((5-chloro-3-methyl-4-oxo-3,4-dihydroquinazolin-6-yl)oxy)-4-fluorophenyl)-(N-ethyl-N-methyl)-sulfamide]
13 | 4 | 7 | 38 | 37 | 2 | 1.7 | – | Cn1cnc2ccc(Nc3c(F)ccc(NS(=O)(=O)N4CC[C@H](F)C4)c3Cl)c(Cl)c2c1=O [Example 28, (S)-N-(2-chloro-3-((5-chloro-3-methyl-4-oxo-3,4-dihydroquinazolin-6-yl)amino)-4-fluorophenyl)-3-fluoropyrrolidine-1-sulfonamide]
14 | 3 | 6 | 32 | 27 | 5.3 | 7.3 | – | Cn1cnc2ccc(Nc3cc(Cl)cc(NS(=O)(=O)N4CC[C@@H](F)C4)c3F)c(F)c2c1=O [Example 58, (R)-N-(5-chloro-2-fluoro-3-((5-fluoro-3-methyl-4-oxo-3,4-dihydroquinazolin-6-yl)amino)phenyl)-3-fluoropyrrolidine-1-sulfonamide trifluoroacetate]
15 | 2 | 111 | 796 | 25 | 2.7 | 6.8 | – | Cc1c(Nc2c(F)c(F)cc(NS(=O)(=O)N3C[C@@H](F)[C@@H](F)C3)c2Cl)ccc2ncn(C)c(=O)c12 [Example 95, cis-N-(2-chloro-3-((3,5-dimethyl-4-oxo-3,4-dihydroquinazolin-6-yl)amino)-4,5-difluorophenyl)-3,4-difluoropyrrolidine-1-sulfonamide]
16 | 42 | 34 | 182 | 28 | 1.9 | 1.6 | – | Cc1c(Nc2c(F)ccc(NS(=O)(=O)N3CC[C@H](F)C3)c2Cl)ccc2ncn(C)c(=O)c12 [Example 86, (S)-N-(2-chloro-3-((3,5-dimethyl-4-oxo-3,4-dihydroquinazolin-6-yl)amino)-4-fluorophenyl)-3-fluoropyrrolidine-1-sulfonamide trifluoroacetate]
17 | 14 | 4 | 20 | 27 | 3.8 | 3.4 | – | CO[C@@H]1CCN(S(=O)(=O)Nc2ccc(F)c(Nc3ccc4ncn(C)c(=O)c4c3F)c2Cl)C1 [Example 5, (R)-N-(2-chloro-4-fluoro-3-((5-fluoro-3-methyl-4-oxo-3,4-dihydroquinazolin-6-yl)amino)phenyl)-3-methoxypyrrolidine-1-sulfonamide]
18 | 4 | 2 | 18 | 40 | 3 | 4.9 | – | CO[C@@H]1CN(S(=O)(=O)Nc2ccc(F)c(Nc3ccc4ncn(C)c(=O)c4c3Cl)c2Cl)C[C@@H]1F (relative stereo) [Example 18, cis-N-(2-chloro-3-((5-chloro-3-methyl-4-oxo-3,4-dihydroquinazolin-6-yl)amino)-4-fluorophenyl)-3-fluoro-4-methoxypyrrolidine-1-sulfonamide]
19 | 36 | 15 | 58 | 31 | 1.2 | 1 | – | CCN(C)S(=O)(=O)Nc1ccc(F)c(Nc2ccc3ncn(C)c(=O)c3c2Cl)c1Cl [Example 2]
